Experimental data taken from patent publication US10653698B2, “Methods of improving myocardial performance in Fontan patients using udenafil compositions” (priority 2014, dated 2020).

How the values were obtained:
[1] = Pharmacokinetic testing, non-compartmental analysis of plasma concentrations; assay type: in vivo, human
Description: NONMEM version 7.2, R, PDxPOP® 5, Xpose, and Phoenix WinNonlin was used for the pharmacokinetic analysis.
Pharmacokinetic analysis was performed on Fontan patients receiving udenafil. […] Plasma concentrations were determined at various time points and non-compartmental analysis was performed in patients and stratified by dosing regimens.

[2] = system: adolescents with single ventricle physiology after Fontan palliation; assay: Vascular function testing (EndoPAT pulse amplitude tonometry, lnRHI and other EndoPAT indices); assay type: in vivo, human; details: for Natural Log of Reactive Hyperemia Index, Baseline measurement: day 1; for Natural Log of Reactive Hyperemia Index, Follow-up measurement: post-medication, day 5
Description: Pulse amplitude tonometry (PAT), a FDA-approved method for assessing vascular function, is increasingly being used as an alternative measure of endothelium-dependent dilation in response to reactive hyperemia and flow-mediated dilation (FMD). The PAT device records digital pulse wave amplitude (PWA) using fingertip plethysmography. PWA can be measured continuously during three phases: a quiet baseline period, 5-min forearm occlusion, and reactive hyperemia following cuff release. Unlike FMD, PAT testing is not dependent upon a highly skilled technician and post-test analysis is largely automated. Most importantly, at least one longitudinal study has shown that PAT measures of endothelial function predict CVD events over a 6-year follow-up period. These significant advantages may make PAT testing suitable for clinical practice if prognostic significance and reliability can be verified.
The primary outcome of vascular function was determined according to an endothelial pulse amplitude tonometry (PAT) index as determined by the EndoPAT® device (Itamar Medical, Caesarea, Israel).
Table 16 summarizes the results for the key outcome from the vascular function testing—natural log of Reactive Hyperemia Index (lnRHI) by treatment group. Out of the 30 subjects enrolled in the treatment arms of the trial, 27 subjects had paired measurements with an acceptable quality (with QC score equal to 3 (the best) or 2). The structure of the table is similar to the one for exercise variables.
Table 17 reports change scores only for secondary EndoPAT outcomes (RHI, Framingham RHI etc; top panel) and other EndoPAT indices.

[3] = 87.5 mg q12 h and 125 mg q24 h cohorts compared to 37.5 mg q12 h or q24 h cohorts

CCCOc1ccc(S(=O)(=O)NCCC2CCCN2C)cc1-c1nc2c(CCC)nn(C)c2c(=O)[nH]1 (centres unmarked) [udenafil]
AUCτ [1, 3]: significantly increased
Cmax [1, 3]: significantly increased
AUC0-24 ([1]; 87.5 mg q12 h cohort among all regimens tested): highest
Cmax ([1]; 87.5 mg q12 h cohort compared to its q24 h counterpart): increased
AUC0-24 ([1]; 125 mg q24 h cohort compared to 37.5 mg q24 h cohort): significantly increased
ke, T1/2, or Tmax ([1]; among all 5 tested dosing regimens): no statistically significant difference
CL/F or V/F ([1]; among dosing regimens, except between 37.5 mg q24 h and 87.5 mg q12 h): No significant difference
Natural Log of Reactive Hyperemia Index, Difference, FU − BL ([2]; 37.5 mg daily): 0.03 ± 0.47
AUC2max_o: Area under the curve to Max-Occlusion (ratio to baseline), FU − BL ([2]; 37.5 mg daily, N 6): −0.23 ± 2.74
AUC2max_oc: Area under the curve to Max-Occlusion/Control, FU − BL ([2]; 37.5 mg daily, N 6): −0.93 ± 4.37
AUCall_o: Area under the curve all-Occlusion (ratio to baseline), FU − BL ([2]; 37.5 mg daily, N 6): −0.01 ± 2.73
AUCall_oc: Area under the curve all-Occlusion/Control, FU − BL ([2]; 37.5 mg daily, N 6): −1.34 ± 6.42
Avg2Max_o: average upto max-Occlusion (ratio to baseline), FU − BL ([2]; 37.5 mg daily, N 6): −0.12 ± 0.28
Avg2Max_oc: average up to max-Occlusion/Control, FU − BL ([2]; 37.5 mg daily, N 6): −0.35 ± 1.01
Avgall_o: average all-Occlusion (ratio to baseline), FU − BL ([2]; 37.5 mg daily, N 6): 0.02 ± 0.27
Avgall_oc: average all -Occlusion/Control, FU − BL ([2]; 37.5 mg daily, N 6): −0.10 ± 0.66
Framingham RHI, FU − BL ([2]; 37.5 mg daily, N 6): −0.00 ± 0.58
Reactive Hyperemia Index, FU − BL ([2]; 37.5 mg daily, N 6): 0.03 ± 0.84
Natural Log of Reactive Hyperemia Index, Baseline measurement ([2]; 37.5 mg daily): 0.48 ± 0.31
Natural Log of Reactive Hyperemia Index, Follow-up measurement ([2]; 37.5 mg daily): 0.51 ± 0.26
Natural Log of Reactive Hyperemia Index, Difference, FU − BL ([2]; 37.5 mg twice daily): −0.07 ± 0.17
AUC2max_o: Area under the curve to Max-Occlusion (ratio to baseline), FU − BL ([2]; 37.5 mg twice daily, N 6): 0.09 ± 1.45
AUC2max_oc: Area under the curve to Max-Occlusion/Control, FU − BL ([2]; 37.5 mg twice daily, N 6): −1.19 ± 1.84
AUCall_o: Area under the curve all-Occlusion (ratio to baseline), FU − BL ([2]; 37.5 mg twice daily, N 6): −0.69 ± 2.17
AUCall_oc: Area under the curve all-Occlusion/Control, FU − BL ([2]; 37.5 mg twice daily, N 6): −1.19 ± 2.00
Avg2Max_o: average upto max-Occlusion (ratio to baseline), FU − BL ([2]; 37.5 mg twice daily, N 6): 0.15 ± 0.19
Avg2Max_oc: average up to max-Occlusion/Control, FU − BL ([2]; 37.5 mg twice daily, N 6): −0.33 ± 0.26
Avgall_o: average all-Occlusion (ratio to baseline), FU − BL ([2]; 37.5 mg twice daily, N 6): −0.08 ± 0.24
Avgall_oc: average all -Occlusion/Control, FU − BL ([2]; 37.5 mg twice daily, N 6): −0.13 ± 0.22
Framingham RHI, FU − BL ([2]; 37.5 mg twice daily, N 6): −0.17 ± 0.19
Reactive Hyperemia Index, FU − BL ([2]; 37.5 mg twice daily, N 6): −0.12 ± 0.30
Natural Log of Reactive Hyperemia Index, Baseline measurement ([2]; 37.5 mg twice daily): 0.60 ± 0.30
Natural Log of Reactive Hyperemia Index, Follow-up measurement ([2]; 37.5 mg twice daily): 0.53 ± 0.29
Natural Log of Reactive Hyperemia Index, Difference, FU − BL ([2]; 87.5 mg daily): 0.07 ± 0.22
AUC2max_o: Area under the curve to Max-Occlusion (ratio to baseline), FU − BL ([2]; 87.5 mg daily, N 5): −1.26 ± 4.89
AUC2max_oc: Area under the curve to Max-Occlusion/Control, FU − BL ([2]; 87.5 mg daily, N 5): 3.03 ± 2.49
AUCall_o: Area under the curve all-Occlusion (ratio to baseline), FU − BL ([2]; 87.5 mg daily, N 5): 1.66 ± 5.96
AUCall_oc: Area under the curve all-Occlusion/Control, FU − BL ([2]; 87.5 mg daily, N 5): 1.88 ± 3.25
Avg2Max_o: average upto max-Occlusion (ratio to baseline), FU − BL ([2]; 87.5 mg daily, N 5): 0.10 ± 0.69
Avg2Max_oc: average up to max-Occlusion/Control, FU − BL ([2]; 87.5 mg daily, N 5): 0.17 ± 0.43
Avgall_o: average all-Occlusion (ratio to baseline), FU − BL ([2]; 87.5 mg daily, N 5): 0.14 ± 0.67
Avgall_oc: average all -Occlusion/Control, FU − BL ([2]; 87.5 mg daily, N 5): 0.16 ± 0.36
Framingham RHI, FU − BL ([2]; 87.5 mg daily, N 5): 0.04 ± 0.36
Reactive Hyperemia Index, FU − BL ([2]; 87.5 mg daily, N 5): 0.12 ± 0.34
Natural Log of Reactive Hyperemia Index, Baseline measurement ([2]; 87.5 mg daily): 0.41 ± 0.25
Natural Log of Reactive Hyperemia Index, Follow-up measurement ([2]; 87.5 mg daily): 0.45 ± 0.31
Natural Log of Reactive Hyperemia Index, Difference, FU − BL ([2]; 87.5 mg twice daily): −0.03 ± 0.20
AUC2max_o: Area under the curve to Max-Occlusion (ratio to baseline), FU − BL ([2]; 87.5 mg twice daily, N 4): −0.51 ± 1.64
AUC2max_oc: Area under the curve to Max-Occlusion/Control, FU − BL ([2]; 87.5 mg twice daily, N 4): 0.16 ± 1.08
AUCall_o: Area under the curve all-Occlusion (ratio to baseline), FU − BL ([2]; 87.5 mg twice daily, N 4): 0.60 ± 2.95
AUCall_oc: Area under the curve all-Occlusion/Control, FU − BL ([2]; 87.5 mg twice daily, N 4): 0.17 ± 4.30
Avg2Max_o: average upto max-Occlusion (ratio to baseline), FU − BL ([2]; 87.5 mg twice daily, N 4): 0.03 ± 0.36
Avg2Max_oc: average up to max-Occlusion/Control, FU − BL ([2]; 87.5 mg twice daily, N 4): 0.24 ± 0.23
Avgall_o: average all-Occlusion (ratio to baseline), FU − BL ([2]; 87.5 mg twice daily, N 4): 0.09 ± 0.33
Avgall_oc: average all -Occlusion/Control, FU − BL ([2]; 87.5 mg twice daily, N 4): 0.05 ± 0.45
Framingham RHI, FU − BL ([2]; 87.5 mg twice daily, N 4): 0.00 ± 0.20
Reactive Hyperemia Index, FU − BL ([2]; 87.5 mg twice daily, N 4): 0.01 ± 0.38
Natural Log of Reactive Hyperemia Index, Baseline measurement ([2]; 87.5 mg twice daily): 0.49 ± 0.12
Natural Log of Reactive Hyperemia Index, Follow-up measurement ([2]; 87.5 mg twice daily): 0.40 ± 0.29
Natural Log of Reactive Hyperemia Index, Difference, FU − BL ([2]; 125 mg daily): −0.10 ± 0.38
AUC2max_o: Area under the curve to Max-Occlusion (ratio to baseline), FU − BL ([2]; 125 mg daily, N 6): 0.37 ± 2.71
AUC2max_oc: Area under the curve to Max-Occlusion/Control, FU − BL ([2]; 125 mg daily, N 6): 1.80 ± 1.18
AUCall_o: Area under the curve all-Occlusion (ratio to baseline), FU − BL ([2]; 125 mg daily, N 6): −0.28 ± 3.98
AUCall_oc: Area under the curve all-Occlusion/Control, FU − BL ([2]; 125 mg daily, N 6): −1.84 ± 7.21
Avg2Max_o: average upto max-Occlusion (ratio to baseline), FU − BL ([2]; 125 mg daily, N 6): 0.07 ± 0.86
Avg2Max_oc: average up to max-Occlusion/Control, FU − BL ([2]; 125 mg daily, N 6): −0.32 ± 1.28
Avgall_o: average all-Occlusion (ratio to baseline), FU − BL ([2]; 125 mg daily, N 6): −0.03 ± 0.49
Avgall_oc: average all -Occlusion/Control, FU − BL ([2]; 125 mg daily, N 6): −0.20 ± 0.84
Framingham RHI, FU − BL ([2]; 125 mg daily, N 6): −0.13 ± 0.51
Reactive Hyperemia Index, FU − BL ([2]; 125 mg daily, N 6): −0.21 ± 0.78
Natural Log of Reactive Hyperemia Index, Baseline measurement ([2]; 125 mg daily): 0.63 ± 0.37
Natural Log of Reactive Hyperemia Index, Follow-up measurement ([2]; 125 mg daily): 0.52 ± 0.34
Natural Log of Reactive Hyperemia Index, Difference, FU − BL ([2]; All subjects (treatment arms)): −0.02 ± 0.30
Natural Log of Reactive Hyperemia Index, Baseline measurement ([2]; All subjects (treatment arms)): 0.52 ± 0.28
Natural Log of Reactive Hyperemia Index, Follow-up measurement ([2]; All subjects (treatment arms)): 0.49 ± 0.28
AUC2max_o: Area under the curve to Max-Occlusion (ratio to baseline), FU − BL ([2]; All subjects, N 27): −0.26 ± 2.75
AUC2max_oc: Area under the curve to Max-Occlusion/Control, FU − BL ([2]; All subjects, N 27): 0.51 ± 2.91
AUCall_o: Area under the curve all-Occlusion (ratio to baseline), FU − BL ([2]; All subjects, N 27): 0.18 ± 3.54
AUCall_oc: Area under the curve all-Occlusion/Control, FU − BL ([2]; All subjects, N 27): −0.60 ± 4.93
Avg2Max_o: average upto max-Occlusion (ratio to baseline), FU − BL ([2]; All subjects, N 27): 0.04 ± 0.51
Avg2Max_oc: average up to max-Occlusion/Control, FU − BL ([2]; All subjects, N 27): −0.16 ± 0.79
Avgall_o: average all-Occlusion (ratio to baseline), FU − BL ([2]; All subjects, N 27): 0.02 ± 0.40
Avgall_oc: average all -Occlusion/Control, FU − BL ([2]; All subjects, N 27): −0.06 ± 0.54
Framingham RHI, FU − BL ([2]; All subjects, N 27): −0.06 ± 0.39
Reactive Hyperemia Index, FU − BL ([2]; All subjects, N 27): −0.04 ± 0.56
Improvement in natural log of Reactive Hyperemia Index ([2]; some patients, baseline to day 5): ≤ 9.75%
